Data as given in patent publication US6908907B2, “Prevention and treatment of tumor growth, metastasis, and thromboembolic complications in cancer patients” (priority 2002, dated 2005).

Experiments:
B16 melanoma = B16 melanoma injectable model of experimental lung metastasis; assay type: in vivo, mice; conditions: 700 ng i.v. 5 minutes prior to tumor cell injection
Text: (§1) Tinzaparin is a low molecular weight heparin that is produced by heparinase depolymerization of unfractionated heparin allowing for its relatively high sulfate to carboxylate ratio. Beyond its potent plasmatic effects on ATIII-dependent coagulation factors, Tinzaparin is a very effective LMWH in causing the release of TFPI from the endothelial cells, the natural inhibitor of tissue factor pro-coagulant and non-coagulant effects. The present study was undertaken to investigate the effect of the LMWH, Tinzaparin as well as recombinant TFPI on experimental lung metastasis. […] In a second experimental group, in addition to the initial (pre-tumor cell) dose, subcutaneous Tinzaparin (10 mg/kg) was administered daily for 14 days at which time lung seeding was assessed. In the latter group, lung tumor formation was reduced by 96% (P<0.001). […] In order to determine the anticoagulant activity of Tinzaparin, 4 hrs after a single subcutaneous dose, whole blood re-calcification was measured using a Sonoclot Analyzer. Tinzaparin (10 mg/kg S.C.) prolonged the clotting time 4 fold. Furthermore, measuring the platelet count (a sensitive marker of intravascular coagulation) before and 15 minutes determined the effect of Tinzaparin on tumor cell-induced clotting activation in vivo after tumor cell injection in control and Tinzaparin-treated animals. […]

[1] = system: tumor cell-induced thrombocytopenia; experiment: Tumor cell-induced clotting activation in vivo (platelet count); parameters: species or system mice; conditions: 700 ng i.v. 5 minutes prior to tumor cell injection
Text: as §1

[2] = system: endothelial cell tube formation; conditions: concentration-dependent; cited from earlier work
[3] = system: colon carcinoma (HCT-116); conditions: CAM model; cited from earlier work

## r-TFPI: recombinant tissue factor pathway inhibitor
B16 melanoma
  reduction of B16 lung metastasis: 85%
[1]
  effect on tumor cell induced thrombocytopenia: abolished tumor cell induced thrombocytopenia
[2]
  effect on endothelial cell tube formation: significant and comparable inhibitory effects
[3]
  inhibition of colon or lung carcinoma-induced angiogenesis, tumor growth and regression: significant inhibition
